Reference: PubChem BioAssay (NCI)
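Exposure lasted 48 hours, with cells grown in 96-well plates and compounds tested at five concentrations. Abbreviation: GI50, concentration required for 50% inhibition of growth. TGI denotes the concentration required for complete inhibition of growth.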

Assays:
Experiment in all cases: growth of human tumour cells (NCI), 48 h
COLO 205 colon = test system: COLO 205 colon
UACC-62 melanoma = test system: UACC-62 melanoma
OVCAR-8 ovarian = test system: OVCAR-8 ovarian
HOP-62 NSCLC = test system: HOP-62 NSCLC
NCI-H23 lung = test system: NCI-H23 lung
HS 578T breast = test system: HS 578T breast
SW-620 colon = test system: SW-620 colon
HCC-2998 colon = test system: HCC-2998 colon
PC-3 prostate = test system: PC-3 prostate
SR leukemia = test system: SR leukemia

Row | SMILES | TGI (COLO 205 colon) | TGI (UACC-62 melanoma) | TGI (OVCAR-8 ovarian) | TGI (HOP-62 NSCLC) | TGI (NCI-H23 lung) | TGI (HS 578T breast) | TGI (SW-620 colon) | TGI (HCC-2998 colon) | TGI (PC-3 prostate) | TGI (SR leukemia) | GI50 (PC-3 prostate) | GI50 (SR leukemia) | GI50 (UACC-62 melanoma) | GI50 (OVCAR-8 ovarian) | GI50 (HOP-62 NSCLC) | GI50 (NCI-H23 lung) | GI50 (HS 578T breast) | GI50 (SW-620 colon) | GI50 (HCC-2998 colon)
1 | CC1=NN(c2nc(N)nc(-c3sccc3N)n2)C(C)(C)C1 | > 100 µM | > 100 µM | > 100 µM | > 100 µM | > 100 µM | > 100 µM | > 100 µM | > 100 µM | – | – | – | – | – | – | – | – | – | – | –
2 | O=c1c(Cc2ccc(Cl)cc2)nnc2sc(-c3ccc(-c4ccc(F)c(Cl)c4)o3)nn12 | > 100 µM | > 100 µM | > 100 µM | > 100 µM | > 100 µM | > 100 µM | > 100 µM | > 100 µM | > 100 µM | – | – | – | – | – | – | – | – | – | –
3 | Cc1cc(S(=O)(=O)Nc2n[nH]c(-c3ccccn3)n2)c(S)cc1Cl | 90.6 µM | 34.8 µM | 30.4 µM | 59 µM | – | 86.6 µM | 54.2 µM | 30.2 µM | > 100 µM | > 100 µM | – | – | – | – | – | – | – | – | –
4 | Cc1ccc(C(=O)N/N=C(\N=Nc2ccccc2)c2ccc(N(C)C)cc2)cc1 | > 100 µM | > 100 µM | > 100 µM | – | > 100 µM | – | > 100 µM | > 100 µM | > 100 µM | > 100 µM | – | – | – | – | – | – | – | – | –
5 | Cc1cc(C)c2c(=O)cc(-c3cccc(F)c3)[nH]c2n1 | 0.354 µM | – | > 100 µM | > 79.9 µM | 11.2 µM | 3.36 µM | – | 3.94 µM | > 49.1 µM | 0.122 µM | – | – | – | – | – | – | – | – | –
6 | S=C(N/N=C\C(=N/NC(=S)N1CCCCC1)c1ccccc1)N1CCCCC1 | 3.86 µM | 4.1 µM | – | 5.83 µM | – | 5.23 µM | 3.83 µM | 3.9 µM | 4.06 µM | – | – | – | – | – | – | – | – | – | –
7 | CC(C)C(CC(=O)OCC(CO)OC(=O)CC(C(C)C)C(C)C)C(C)C (configuration not stated) | 20 µM | 32.8 µM | – | 23 µM | 30.4 µM | 21.5 µM | 26.8 µM | 30.9 µM | 30.3 µM | > 100 µM | – | – | – | – | – | – | – | – | –
8 | C/C(Cl)=N\OC(=O)Nc1ccc(C)cc1 | 33.3 µM | – | 32.4 µM | > 100 µM | 39 µM | 83 µM | 33 µM | 31.4 µM | 29.3 µM | – | – | – | – | – | – | – | – | – | –
9 | CC(=O)OCC1OC(n2c(-c3ccccc3)c(N=Nc3ccccc3)c(C)c(C#N)c2=S)C(OC(C)=O)C(OC(C)=O)C1OC(C)=O (configuration not stated) | > 100 µM | > 100 µM | – | > 100 µM | > 100 µM | > 100 µM | > 100 µM | > 100 µM | > 100 µM | > 100 µM | – | – | – | – | – | – | – | – | –
10 | CCc1c(CNc2ccc(C(=O)NC(CC(=O)O)C(=O)O)cc2)ccc2nc(N)nc(N)c12 (configuration not stated) | – | > 1000 µM | > 1000 µM | > 1000 µM | > 1000 µM | > 1000 µM | > 1000 µM | – | > 1000 µM | > 1000 µM | < 0.01 µM | – | – | – | – | – | – | – | –
11 | COc1cc(-c2n/c(=C\c3c(O)[nH]c4ccc(Cl)cc34)cc3c2=Nc2ccccc2-3)ccc1F | – | 3.2 µM | 5.19 µM | 2.52 µM | 3.42 µM | 5.92 µM | 2.94 µM | 8.81 µM | 5.88 µM | 4.76 µM | 2 µM | 1.08 µM | 1.65 µM | 2.03 µM | 1.17 µM | 1.73 µM | 2.07 µM | 1.33 µM | 2.94 µM
